Data as given in patent US20260138961A1, “MODULATORS OF MITOCHONDRIAL DNA REPLICATION” (Pretzel Therapeutics, Inc., priority 2022, published 2026).

target: T1, POLγA:Y955C (Homo sapiens, UniProt P54098, Y955C); test: DNA polymerization assay, POLγA:Y955C mutant; assay type: biochemical; settings: stimulation of polymerase activity, primed M13mp18 ssDNA, 37° C. 2 hours
T1 sequence (P54098 1-1239 Y955C): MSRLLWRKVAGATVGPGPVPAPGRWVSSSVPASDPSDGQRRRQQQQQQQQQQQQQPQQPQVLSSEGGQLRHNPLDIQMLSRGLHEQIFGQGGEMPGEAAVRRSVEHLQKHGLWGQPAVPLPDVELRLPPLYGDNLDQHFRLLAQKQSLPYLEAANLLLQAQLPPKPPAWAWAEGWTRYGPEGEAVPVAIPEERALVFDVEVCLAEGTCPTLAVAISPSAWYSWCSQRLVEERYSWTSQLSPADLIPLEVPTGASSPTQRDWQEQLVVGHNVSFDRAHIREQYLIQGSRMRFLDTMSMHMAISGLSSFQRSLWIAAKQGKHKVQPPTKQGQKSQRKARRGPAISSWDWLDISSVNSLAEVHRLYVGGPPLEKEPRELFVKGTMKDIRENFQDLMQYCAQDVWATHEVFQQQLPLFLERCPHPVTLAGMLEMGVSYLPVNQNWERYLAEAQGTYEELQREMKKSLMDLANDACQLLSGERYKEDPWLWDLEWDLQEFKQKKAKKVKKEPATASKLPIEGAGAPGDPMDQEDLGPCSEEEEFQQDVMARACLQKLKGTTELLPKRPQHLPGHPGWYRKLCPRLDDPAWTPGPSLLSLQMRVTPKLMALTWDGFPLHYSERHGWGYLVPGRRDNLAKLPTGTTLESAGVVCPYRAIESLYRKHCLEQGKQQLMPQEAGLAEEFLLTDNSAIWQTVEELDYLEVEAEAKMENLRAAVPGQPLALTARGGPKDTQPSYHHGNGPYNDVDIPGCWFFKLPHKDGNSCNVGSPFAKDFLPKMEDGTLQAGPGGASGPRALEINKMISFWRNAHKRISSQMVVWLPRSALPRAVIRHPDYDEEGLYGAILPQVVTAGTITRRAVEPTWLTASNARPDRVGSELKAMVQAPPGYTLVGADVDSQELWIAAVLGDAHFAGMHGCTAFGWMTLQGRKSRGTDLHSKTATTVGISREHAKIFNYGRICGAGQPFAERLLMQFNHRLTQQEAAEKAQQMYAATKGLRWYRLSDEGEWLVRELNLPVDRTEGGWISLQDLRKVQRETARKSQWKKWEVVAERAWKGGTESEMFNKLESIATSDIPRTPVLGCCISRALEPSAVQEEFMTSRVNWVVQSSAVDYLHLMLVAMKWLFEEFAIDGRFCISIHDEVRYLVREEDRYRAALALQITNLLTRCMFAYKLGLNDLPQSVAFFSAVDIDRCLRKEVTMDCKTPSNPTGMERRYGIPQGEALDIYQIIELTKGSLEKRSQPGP
T1 sequence (Q9UHN1 1-485 partner): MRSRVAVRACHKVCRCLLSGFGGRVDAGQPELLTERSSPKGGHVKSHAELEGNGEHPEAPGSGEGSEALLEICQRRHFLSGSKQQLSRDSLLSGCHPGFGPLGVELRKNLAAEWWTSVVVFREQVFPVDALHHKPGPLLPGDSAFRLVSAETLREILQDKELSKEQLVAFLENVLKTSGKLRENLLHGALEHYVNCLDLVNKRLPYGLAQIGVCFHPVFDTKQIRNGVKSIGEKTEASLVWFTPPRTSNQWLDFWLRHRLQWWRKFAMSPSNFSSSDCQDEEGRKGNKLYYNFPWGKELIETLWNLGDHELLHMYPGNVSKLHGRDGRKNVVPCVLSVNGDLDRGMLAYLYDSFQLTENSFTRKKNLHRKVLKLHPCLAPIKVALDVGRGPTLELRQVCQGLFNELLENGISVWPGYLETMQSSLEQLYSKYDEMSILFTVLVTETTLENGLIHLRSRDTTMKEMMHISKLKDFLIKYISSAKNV
Method: DNA Polymerization Assay to Monitor Effects on Human Wildtype POLγ and Four Disease-Causing Mutant Variants of Human POLγ.
The ability of small molecules to stimulate the polymerase activity of POLγ was analyzed in a quantitative fluorescence SYBR Green I assay with fluorescence intensity (FI) readout.
In the presence of dNTPs, wild type human POLγ and mutant derivatives thereof were incubated with single-stranded, circular M13mp18 ssDNA hybridized to a short DNA oligonucleotide that functions as a primer for initiation of DNA synthesis. POLγ and mutant derivatives thereof will extend the primer and use the M13mp18 molecule as a template to synthesize long stretches of double-stranded DNA. SYBR Green I, which is a double-stranded DNA-binding dye, was used to quantify formation of double-stranded DNA in the reaction. When bound to double-stranded DNA, SYBR Green I fluorescence increases by up to 100-fold.
The assay was performed in the 384-well plate format. Upon addition of compounds, changes in double-stranded DNA synthesis activity can be monitored by following effects on fluorescent intensity.
The reactions also contained the accessory POLγB subunit, and the human mitochondrial single-stranded DNA binding protein (mtSSB).
The DNA template mixture used in the assay contained 0.5 nM primed M13 mp18 ssDNA, 400 nM mtSSB, 0.1 mM Tris-HCl (pH 8.0), 0.1 mM dNTP, 10 mM MgCl2, 0.1 mg/mL BSA, 1 mM TCEP solution, and 0.02% Triton X-100. The DNA template mixture for the wild type protein contained either 100 μM dNTP, 1 μM dNTP, or 0.1 μM dNTP, designated in Table 2 as 100 μM, 1 μM, and 0.1 μM, respectfully.
Microplates with compounds (0.1 μL in each well) to be tested in the assay were prepared from 10 mM compound stocks in 100% DMSO, and equal amounts of DMSO without any compound were added to positive and negative control wells.
The protein mixture was dispensed (5 μL into each well) into compound plates and incubated at 37° C. for 15 minutes. After incubation, 5 μL of the DNA template mixture was dispensed into each well. The plates were then incubated at 37° C. for 2 hours.
During incubation, a combined stop buffer and detection reagent solution was prepared. The buffer contained 25 mM EDTA (pH 8.0), 0.02% Triton X-100, and SYBR Green I [Invitrogen] diluted 10,000× (for fluorescent readout). EDTA will stop the enzymatic reaction by chelating magnesium ions.

Molecule	AC50
Cc1cc(S(=O)(=O)Nc2cccc(C(=O)N(C)C(C)CO)c2)c(C)cc1Cl (single isomer, unassigned) [Example 14, 3-((4-chloro-2,5-dimethylphenyl)sulfonamido)-N-(1-hydroxypropan-2-yl)-N-methylbenzamide]	2000 nM
Cc1ccc(C)c(S(=O)(=O)Nc2cccc(C(=O)N3CCCCC3C#N)c2)c1 (centres unmarked) [Example 2, N-(3-(2-cyanopiperidine-1-carbonyl)phenyl)-2,5-dimethylbenzenesulfonamide]	1000 nM
Cc1ccc(C)c(S(=O)(=O)Nc2cccc(C(=O)N3CCCCC3)c2)c1 [Example 3, 2,5-dimethyl-N-(3-(piperidine-1-carbonyl)phenyl)benzene sulfonamide]	5000 nM
Cc1ccc(C)c(S(=O)(=O)Nc2cccc(C(=O)NCC3CC3)c2)c1 [Example 4, N-(cyclopropylmethyl)-3-((2,5-dimethylphenyl)sulfonamido)benzamide]	11000 nM
Cc1ccc(C)c(S(=O)(=O)Nc2cccc(C(=O)N3CCCC[C@H]3C)c2)c1 [Example 5, (R)-2,5-dimethyl-N-(3-(2-methylpiperidine-1-carbonyl)phenyl)benzenesulfonamide]	3000 nM
Cc1ccc(C)c(S(=O)(=O)Nc2cccc(C(=O)N3CCCC[C@@H]3C)c2)c1 [Example 6, (S)-2,5-dimethyl-N-(3-(2-methylpiperidine-1-carbonyl)phenyl)benzenesulfonamide]	5000 nM
Cc1ccc(C)c(S(=O)(=O)Nc2cccc(C(=O)N3CCOCC3C#N)c2)c1 (centres unmarked) [Example 7, N-(3-(3-cyanomorpholine-4-carbonyl)phenyl)-2,5-dimethylbenzenesulfonamide]	1000 nM
Cc1ccc(C)c(S(=O)(=O)Nc2cccc(C(=O)N[C@@H](C)C3CC3)c2)c1 [Example 8, (S)-N-(1-cyclopropylethyl)-3-((2,5-dimethylphenyl)sulfonamido)benzamide]	3000 nM
Cc1cc(S(=O)(=O)Nc2cccc(C(=O)N3CCCC[C@H]3C)c2)c(C)cc1Cl [Example 9, (R)-4-chloro-2,5-dimethyl-N-(3-(2-methylpiperidine-1-carbonyl)phenyl)benzenesulfonamide]	2000 nM
Cc1cc(S(=O)(=O)Nc2cccc(C(=O)N3CCC[C@H]3C)c2)c(C)cc1Cl [Example 10, (R)-4-chloro-2,5-dimethyl-N-(3-(2-methylpyrrolidine-1-carbonyl)phenyl)benzenesulfonamide]	400 nM
Cc1cc(S(=O)(=O)Nc2cccc(C(=O)NCc3ccccc3)c2)c(C)cc1Cl [Example 11, N-benzyl-3-((4-chloro-2,5-dimethylphenyl)sulfonamido)benzamide]	4000 nM
Cc1cc(S(=O)(=O)Nc2cccc(C(=O)N(C)C)c2)c(C)cc1Cl [Example 12, 3-((4-chloro-2,5-dimethylphenyl)sulfonamido)-N,N-dimethylbenzamide]	2000 nM
Cc1cc(S(=O)(=O)Nc2cc(F)cc(C(=O)N3CCC[C@H]3C)c2)c(C)cc1Cl [Example 13, (R)-4-chloro-N-(3-fluoro-5-(2-methylpyrrolidine-1-carbonyl)phenyl)-2,5-dimethylbenzenesulfonamide]	2000 nM
Cc1cc(S(=O)(=O)Nc2cccc(-c3nccs3)c2)c(C)cc1Cl [Example 16, 4-chloro-2,5-dimethyl-N-(3-(thiazol-2-yl)phenyl)benzenesulfonamide]	800 nM
Cc1cc(S(=O)(=O)Nc2cccc(-c3ncco3)c2)c(C)cc1Cl [Example 17, 4-chloro-2,5-dimethyl-N-(3-(oxazol-2-yl)phenyl)benzenesulfonamide]	800 nM
Cc1cc(S(=O)(=O)Nc2cccc(-c3ccn(C)n3)c2)c(C)cc1Cl [Example 18, 4-chloro-2,5-dimethyl-N-(3-(1-methyl-1H-pyrazol-3-yl)phenyl)benzenesulfonamide]	3000 nM
Cc1cc(S(=O)(=O)Nc2cccc(-c3nccn3C)c2)c(C)cc1Cl [Example 19, 4-chloro-2,5-dimethyl-N-(3-(1-methyl-1H-imidazol-2-yl)phenyl)benzenesulfonamide]	500 nM
Cc1cc(S(=O)(=O)Nc2cccc(-c3ncc(C#N)s3)c2)c(C)cc1Cl [Example 96, 4-chloro-N-(3-(5-cyanothiazol-2-yl)phenyl)-2,5-dimethylbenzenesulfonamide]	50000 nM
Cc1cnc(-c2ccc(C)c(NS(=O)(=O)c3cc(C)c(Cl)cc3C)c2)s1 [Example 98, 4-chloro-2,5-dimethyl-N-(2-methyl-5-(5-methylthiazol-2-yl)phenyl)benzenesulfonamide]	> 10000 nM
Cc1cnc(-c2ccc(Cl)c(NS(=O)(=O)c3cc(C)c(Cl)cc3C)c2)s1 [Example 102, 4-chloro-N-(2-chloro-5-(5-methylthiazol-2-yl)phenyl)-2,5-dimethylbenzenesulfonamide]	> 100000 nM
Cc1cnc(-c2cc(NS(=O)(=O)c3cc(C)c(Cl)cc3C)ccc2C)s1 [Example 103, 4-chloro-2,5-dimethyl-N-(4-methyl-3-(5-methylthiazol-2-yl)phenyl)benzenesulfonamide]	9000 nM
Cc1cc(S(=O)(=O)Nc2ccc3c(c2)CC(=O)N3)c(C)cc1Cl [Example 185, 4-chloro-2,5-dimethyl-N-(2-oxoindolin-5-yl)benzenesulfonamide]	2000 nM
(R)-2,5-dimethyl-N-(3-(3-methylmorpholine-4-carbonyl)phenyl)benzenesulfonamide [Example 1]	2000 nM
